Measurements taken from patent US12497610B2, “Functional genomics using CRISPR-CAS systems for saturating mutagenesis of non-coding elements, compositions, methods, libraries and applications thereof” (THE BROAD INSTITUTE, INC., priority 2015, dated 2025).

System: human BCL11A erythroid enhancer
Assay: Tiled pooled CRISPR-Cas9 screen for in situ functional mapping of the human BCL11A erythroid enhancer (HbF-high/HbF-low sort, sgRNA deep sequencing)
Format: cell-based
Conditions: for Enrichment Score: HbF enrichment, human library NGG and NGG RC sgRNAs filtered for enrichment score >0.259; for Dropout Score: human library sgRNAs that produced HbF enrichment over 0.259
Text: Every 20-mer sequence upstream of an NGG or NAG PAM sequence on the sense or anti-sense strand was identified for both the human and mouse orthologous +55, +58, and +62 DNase hypersensitive site (DHS) as well as BCL11A/BCL11a exon 2. Relative to the human hg 19 reference genome, a reference was used with the following substitutions to approximate a common low-HbF associated haplotype: rs1427407-G, rs1896293-T, rs6706648-T, rs6738440-G, rs7606173-C. Each of the sgRNA oligos were synthesized as previously described (37,41,64) and cloned using a Gibson Assembly master mix (New England Biolabs) into lentiGuide-Puro (Addgene plasmid ID 52963) BsmBI digested, PCR purified, and dephosphorylated. Gibson Assembly products were transformed to electrocompetent E. cloni cells (Lucigen). Sufficient colonies were isolated to ensure 90X library coverage for both human and mouse libraries. Plasmid libraries were deep sequenced (described below) to confirm representation.
Tiled Pooled CRISPR-Cas9 Screen for In Situ Functional Mapping the Human BCL11A Erythroid Enhancer.
HUDEP clone 2 (HUDEP-2) was utilized as previously described by from Nakamura and colleagues (49). HUDEP-2 cells were expanded in StemSpan SFEM (Stem Cell Technologies) supplemented with 10^−6 M dexamethasone (Sigma), 100 ng/mL human stem cell factor (SCF) (R&D), 3 IU/mL erythropoietin (Amgen), 1% L-glutamine (Life Technologies), and 2% penicillin/streptomycin (Life Technologies). 1 μg/mL doxycycline (Sigma) was included in the culture to induce expression of the human papilloma virus type 16 E6/E7 genes (49). HUDEP-2 cells were differentiated in Iscove's Modified Dulbecco's Medium (IMDM) supplemented with 330 μg/mL halo-transferrin (Sigma), 10 μg/mL recombinant human insulin (Sigma), 2 IU/mL heparin (Sigma), 5% human solvent detergent pooled plasma AB (Rhode Island Blood Center), 3 IU/mL erythropoietin (Amgen), 100 ng/mL human stem cell factor (SCF) (R&D), 1 μg/mL doxycycline (Sigma), 1% L-glutamine (Life Technologies), and 2% penicillin/streptomycin (Life Technologies).
HUDEP-2 cells with stable Cas9 expression were transduced at low multiplicity with the human sgRNA library lentivirus pool while in expansion medium. […] Cell numbers were maintained throughout the experiment at levels adequate to exceed 1000× representation of the library. 10 μg/mL blasticidin (Sigma) and 1 μg/mL puromycin (Sigma) were added 24 hours after transduction to select for lentiviral library integrants in cells with Cas9. Cells were cultured in expansion media for one week followed by differentiation media for an additional week.
Intracellular staining was performed by fixing cells with 0.05% glutaraldehyde (grade II) (Sigma) for 10 minutes at room temperature. Cells were centrifuged for 5 minutes at 350 g and then resuspended in 0.1% Triton-X100 (Life Technologies) for 5 minutes at room temperature for permeabilization. Triton X-100 was diluted with phosphate buffered saline (PBS) and then centrifuged at 350 g for 15 minutes. Cells were stained with anti-human antibodies for HbF (clone HbF-1 with FITC or APC conjugation; Life Technologies) and B-hemoglobin antibody (clone 37-8 with PerCP-Cy5 or PE conjugation; Santa Cruz) for 20 minutes in the dark. Cells were washed to remove unbound antibody prior to FACS analysis. 0.2 μg HbF and 2 μg of HbA CB-hemoglobin) antibodies were used per 5 million cells. Control cells exposed to a nontargeting sgRNA sample and BCL11A exon 2 were used as negative and positive controls respectively to establish flow cytometry conditions. Populations of cells with the top and bottom 10% of expression of HbF were sorted by FACS.
After sorting the HbF-high and HbF-low pools, library preparation and deep sequencing was performed as previously described (37). Briefly, genomic DNA was extracted using the Qiagen Blood and Tissue kit. […]

In the case of “BCL_00227_H_D62 (guide ATCCCAGCACTTTGGGAGGCNGG; listed as DNA, chemistry not given here)”, the “Enrichment Score” value is reported as 0.79 and the “Dropout Score” value is reported as −8.099.

With “BCL_00228_H_D62 (guide TCCCAGCACTTTGGGAGGCCNGG; listed as DNA, chemistry not given here)” the “Enrichment Score” value was 0.761 and the “Dropout Score” value was −5.658.

In the case of “BCL_00229_H_D62 (guide CCCAGCACTTTGGGAGGCCGNGG; listed as DNA, chemistry not given here)”, the “Enrichment Score” value is reported as 0.6113 and the “Dropout Score” value is reported as −8.717.

In the case of “BCL_00233_H_D62 (guide CAGGAGGATCACCTGAGGTCNGG; listed as DNA, chemistry not given here)”, the “Enrichment Score” value is reported as 0.6113 and the “Dropout Score” value is reported as −9.202.

“BCL_00238_H_D62 (guide TGCCTGTAATCTCAGCTACTNGG; listed as DNA, chemistry not given here)” was tested, and the “Enrichment Score” value was 0.6113 and the “Dropout Score” value was −8.923.

In the case of “BCL_00239_H_D62 (guide GCCTGTAATCTCAGCTACTCNGG; listed as DNA, chemistry not given here)”, the “Enrichment Score” value is reported as 1.916 and the “Dropout Score” value is reported as −6.031.

With “BCL_00240_H_D62 (guide TGTAATCTCAGCTACTCGGGNGG; listed as DNA, chemistry not given here)” the “Enrichment Score” value was 0.79 and the “Dropout Score” value was −8.691.

With “BCL_00241_H_D62 (guide CTCAGCTACTCGGGAGGCTGNGG; listed as DNA, chemistry not given here)” the “Enrichment Score” value was 0.6113 and the “Dropout Score” value was −9.052.

“BCL_00245_H_D62 (guide GGAGATCGCTTGAACCTGGGNGG; listed as DNA, chemistry not given here)” was tested, and the “Enrichment Score” value was 0.4762 and the “Dropout Score” value was −5.067.

For “BCL_00248_H_exon2 (guide ACAGATGATGAACCAGACCANGG; listed as DNA, chemistry not given here)”, the “Enrichment Score” value was 1.609 and the “Dropout Score” value was −2.532.

For “BCL_00249_H_exon2 (guide TGAACCAGACCACGGCCCGTNGG; listed as DNA, chemistry not given here)”, the “Enrichment Score” value was 1.175 and the “Dropout Score” value was −0.8221.

With “BCL_00250_H_exon2 (guide GAACCAGACCACGGCCCGTTNGG; listed as DNA, chemistry not given here)” the “Enrichment Score” value was 1.581 and the “Dropout Score” value was −0.6847.

For “BCL_00251_H_exon2 (guide GGCCCGTTGGGAGCTCCAGANGG; listed as DNA, chemistry not given here)”, the “Enrichment Score” value was 1.911 and the “Dropout Score” value was −1.236.

For “BCL_00252_H_exon2 (guide GCCCGTTGGGAGCTCCAGAANGG; listed as DNA, chemistry not given here)”, the “Enrichment Score” value was 0.5453 and the “Dropout Score” value was 0.09212.

With “BCL_00253_H_exon2 (guide CCCGTTGGGAGCTCCAGAAGNGG; listed as DNA, chemistry not given here)” the “Enrichment Score” value was 1.205 and the “Dropout Score” value was −1.968.

With “BCL_00254_H_exon2 (guide GATCATGACCTCCTCACCTGNGG; listed as DNA, chemistry not given here)” the “Enrichment Score” value was 2.198 and the “Dropout Score” value was −2.256.

In the case of “BCL_00255_H_exon2 (guide ATCATGACCTCCTCACCTGTNGG; listed as DNA, chemistry not given here)”, the “Enrichment Score” value is reported as 1.703 and the “Dropout Score” value is reported as −2.497.

For “BCL_00256_H_exon2 (guide GTGCCAGATGAACTTCCCATNGG; listed as DNA, chemistry not given here)”, the “Enrichment Score” value was 1.89 and the “Dropout Score” value was −1.764.

With “BCL_00257_H_exon2 (guide TGCCAGATGAACTTCCCATTNGG; listed as DNA, chemistry not given here)” the “Enrichment Score” value was 1.945 and the “Dropout Score” value was −1.9609.

For “BCL_00258_H_exon2 (guide GCCAGATGAACTTCCCATTGNGG; listed as DNA, chemistry not given here)”, the “Enrichment Score” value was 1.593 and the “Dropout Score” value was −1.899.

In the case of “BCL_00259_H_exon2 (guide CCAGATGAACTTCCCATTGGNGG; listed as DNA, chemistry not given here)”, the “Enrichment Score” value is reported as 3.266 and the “Dropout Score” value is reported as −3.321.

For “BCL_00261_H_exon2 (guide CACAAACGGAAACAATGCAANGG; listed as DNA, chemistry not given here)”, the “Enrichment Score” value was 3.329 and the “Dropout Score” value was −2.543.

“BCL_00262_H_exon2 (guide CCTCTGCTTAGAAAAAGCTGNGG; listed as DNA, chemistry not given here)” was tested, and the “Enrichment Score” value was 1.001 and the “Dropout Score” value was −1.352.

For “BCL_00263_H_exon2 (guide GAAAAAAGCATCCAATCCCGNGG; listed as DNA, chemistry not given here)”, the “Enrichment Score” value was 0.6213 and the “Dropout Score” value was −2.115.

In the case of “BCL_00264_H_exon2 (guide AAAAGCATCCAATCCCGTGGNGG; listed as DNA, chemistry not given here)”, the “Enrichment Score” value is reported as 0.5578 and the “Dropout Score” value is reported as −1.376.

For “BCL_00265_H_exon2 (guide GCATCCAATCCCGTGGAGGTNGG; listed as DNA, chemistry not given here)”, the “Enrichment Score” value was 1.291 and the “Dropout Score” value was −0.8895.

With “BCL_00266_H_exon2 (guide TCCCGTGGAGGTTGGCATCCNGG; listed as DNA, chemistry not given here)” the “Enrichment Score” value was 0.5889 and the “Dropout Score” value was −0.1802.

With “BCL_00267_H_exon2 (guide TGGCATCCAGGTCACGCCAGNGG; listed as DNA, chemistry not given here)” the “Enrichment Score” value was 2.049 and the “Dropout Score” value was −2.006.

“BCL_01427_H_D55 (guide GGCTAAATAATGAATGTCCCNGGRC; listed as DNA, chemistry not given here)” was tested, and the “Enrichment Score” value was 0.367 and the “Dropout Score” value was −0.2716.

With “BCL_01428_H_D55 (guide GAATGTCCCAGGCCAATTCTNGGRC; listed as DNA, chemistry not given here)” the “Enrichment Score” value was 0.4299 and the “Dropout Score” value was −0.5435.

With “BCL_01438_H_D55 (guide TACCAGGATGATGCAATGCTNGGRC; listed as DNA, chemistry not given here)” the “Enrichment Score” value was 0.9129 and the “Dropout Score” value was −0.4122.

“BCL_01443_H_D55 (guide GGCACACCCTGTGATCTTGTNGGRC; listed as DNA, chemistry not given here)” was tested, and the “Enrichment Score” value was 0.4181 and the “Dropout Score” value was 0.2579.

For “BCL_01448_H_D55 (guide TGTGCTTGGTCGGCACTGATNGGRC; listed as DNA, chemistry not given here)”, the “Enrichment Score” value was 1.348 and the “Dropout Score” value was −0.4953.

“BCL_01449_H_D55 (guide GTGCTTGGTCGGCACTGATANGGRC; listed as DNA, chemistry not given here)” was tested, and the “Enrichment Score” value was 1.134 and the “Dropout Score” value was −0.6101.

For “BCL_01450_H_D55 (guide TGCTTGGTCGGCACTGATAGNGGRC; listed as DNA, chemistry not given here)”, the “Enrichment Score” value was 1.578 and the “Dropout Score” value was −0.3195.

For “BCL_01454_H_D55 (guide GGGTCGCGGTAGGGAGTTGTNGGRC; listed as DNA, chemistry not given here)”, the “Enrichment Score” value was 0.3579 and the “Dropout Score” value was −0.5577.

In the case of “BCL_01461_H_D55 (guide GCCCTGCTGGTTATCACTGTNGGRC; listed as DNA, chemistry not given here)”, the “Enrichment Score” value is reported as 0.5924 and the “Dropout Score” value is reported as −0.5115.

In the case of “BCL_01483_H_D55 (guide GTCATCCTCGGCCAATGAAGNGGRC; listed as DNA, chemistry not given here)”, the “Enrichment Score” value is reported as 0.4318 and the “Dropout Score” value is reported as −0.4056.
